Test results taken from patent publication US20160304577A1, “GLYCOSYLATED GLYCOPHORIN PEPTIDES” (GLYCOTOPE GMBH, priority 2013, published 2016).
Entries after “also recorded” stand apart in the source; their conditions may differ. No end group written: not given here.

Assays:
dendritic cells [1] = assay: Effect of antigen processing inhibitors on presentation of TFα derived from aGPA (flow cytometry, Nemod-TF1); assay type: cell-based, human; conditions: DCs treated with inhibitor of lysosomal acidification prior to loading with aGPA
Experimental: DCs were pretreated with indicated concentrations of chloroquine (a) and ammonium chloride (b) before aGPA was added. Presentation of TFα was analyzed by flow cytometry using Nemod-TF1. Data are presented as the percentage of the relative presentation which was calculated according to the following formula: (percentage of positive cells incubated with antigen processing inhibitors)/(percentage of positive cells of untreated cells)×(100)). The means of one experiment performed in duplicates are shown.
In order to characterize the processing pathway of aGPA, dendritic cells were treated with inhibitors of lysosomal acidification, chloroquine and ammonium chloride (MHC class II processing) prior to loading. […] These findings verify that aGPA is processed in the cell before TFα is presented on the cell surface.

DCs = assay: Presentation of biotin-conjugated GPA-derived peptides on DCs, fluorescence-labeled streptavidin, flow cytometry; assay type: cell-based, human
Experimental: DCs were loaded with the biotin-conjugated peptides GPA1-9(3TF), GPA9-25(4TF), GPA9-25(6TF), GPA26-43(2TF), GPA34-55(4TF), GPA41-55(3TF), GPA45-55(2TF), GPA48-55(1TF) and GPA48-63(1TF). Presentation was determined by fluorescence-labeled streptavidin. The subpopulations of CD80+CD209+, CD80+CD209− and CD80−CD209− mature DCs were analyzed separately. Mean percentages+SD of one experiment performed in duplicates are shown.
DCs were loaded with the biotin-conjugated peptides. Presentation was determined by fluorescence-labeled streptavidin. The subpopulations CD80+CD209+, CD80+CD209- and CD80−CD209− mature DCs were analyzed separately. Mean percentages+SD of one experiment performed in triplicates are shown.
For that reason the GPA-derived TF-α glycosylated peptides GPA1-9(3TF), GPA9-25(4TF), GPA9-25(6TF), GPA26-43(2TF), GPA34-55(4TF), GPA41-55(3TF), GPA45-55(2TF), GPA48-55(1TF) and GPA48-63(1TF) were employed.
By using four different glycosylation variants of GPA26-43, it was aimed to investigate the effect of TFα-glycosylation on the presentation in more detail.

TFα-specific T cells [2] = assay: IFN-γ ELISPOT, restimulation of B. ovatus-primed T cells with peptide-loaded DCs; assay type: cell-based, human; conditions: T cells primed with TFα-positive B. ovatus strain
Experimental: PBMCs of a healthy donor were primed with DCs loaded with TFα positive B. ovatus (BO+). Restimulation with GPA26-43(2TF) and GPA34-55(4TF) was analyzed by IFN-γ ELISPOT. The mean numbers of IFN-γ+spots+SEM of one experiment performed in triplicates is shown.
In order to analyze whether DCs loaded with peptide GPA26-43(2TF) or GPA34-55(4TF) can activate TFα-specific T cells, they were used for restimulation of T cells primed with a TFα-positive B. ovatus strain. Restimulation was detected by an IFN-γ ELISPOT assay. […] Since TFα is the only overlapping structure between the TFα-positive B. ovatus strain and the TFα-glycosylated GPA-derived peptides GPA26-43(2TF) and GPA34-55(4TF), it is obvious that the restimulated T cells were TFα-specific. […] This immune response, when elicited in a human being, can protect against cells carrying said carbohydrate structure. In the case of tumor-associated carbohydrate antigens such as TFα, vaccination against and treatment of cancer comprising cells carrying said carbohydrate antigen is possible with these glycosylated glycophorin peptides. Therefore, based on this experiment, GPA-derived TF-α glycosylated peptides are proposed for the use of treating or preventing cancer in human.

dendritic cells [3] = assay: Flow cytometry of TFα presentation on dendritic cells loaded with aGPA or GPA (Nemod-TF1, Nemod-TF2); assay type: cell-based, human
Experimental: GPA- and aGPA-loaded cells were stained with Nemod-TF1 and Nemod-TF2 and analyzed by flow cytometry. The subpopulations of CD80+CD209+, CD80+CD209− and CD80−CD209− cells were analyzed separately. The mean percentages of positive cells+SD of one experiment performed in duplicates are shown.
DCs were loaded with aGPA and GPA for indicated time periods. Presentation of TFα was analyzed on the subpopulations of CD80+CD209+ (a), CD80+CD209− (b) and CD80−CD209− (c) DCs by flow cytometry using Nemod-TF1. Data are presented as mean percentage of positive cells±SD of one experiment performed in duplicates.
In order to analyze the antigen presentation of aGPA in more detail, dendritic cells loaded with aGPA and GPA were analyzed by flow cytometry using anti-TFα antibodies and for co-staining anti-CD80 and anti-CD209 antibodies.
In order to test whether aGPA is unspecifically attached to the cell surface of DCs, aGPA was added 10 min prior to the analysis of surface presentation with the TFα-specific antibody Nemod-TF1 and compared to TFα-presentation after loading times of 1 and 2 d. […] This is important since the presentation on MHC proteins is crucial for activation of TF-α specific T cells.

TFα-specific T cells [4] = assay: IFN-γ ELISPOT, second restimulation of TFα-specific T cells with aGPA- or GPA-loaded dendritic cells; assay type: cell-based; conditions: T cells primed with TFα positive B. ovatus strain and restimulated with lysate of TFα positive human cell line
Experimental: PBMCs of a healthy donor were twice primed with DCs loaded with a TFα positive B. ovatus strain (BO+). Restimulation with DCs loaded with lysate of a TFα positive (HC+) or TFα negative (HC−) human cell line was analyzed by IFN-γ ELISPOT. T cells restimulated with TFα positive cells were further cultivated and restimulated in a second round with aGPA- and GPA-loaded DCs, which was analyzed by IFN-γ ELISPOT. The mean numbers of IFN-γ+spots+SEM of one experiment performed in triplicates (1st restimulation) or of four replicates (2nd restimulation) are shown. IFN-γ+spots of PBMCs without restimulation were subtracted. Statistical analysis was performed using 1 way ANOVA (***: P<0.001).
In order to analyze whether asialoglycophorin A (aGPA)-loaded dendritic cells (DCs) have the potential to activate TFα-specific T cells, a T cell culture, which was primed with a TFα positive B. ovatus strain and restimulated with lysate of a TFα positive human cell line, was restimulated in a second round with dendritic cells loaded with either aGPA or glycophorin A (GPA).

Cl.N [ammonium chloride]
effect on presentation of TFα derived from aGPA (dendritic cells [1]): blocked the presentation of TFα

CCN(CC)CCCC(C)Nc1ccnc2cc(Cl)ccc12 (stereo not shown) [chloroquine]
effect on presentation of TFα derived from aGPA (dendritic cells [1]): blocked the presentation of TFα

GPA1-9(3TF): biotin-conjugated GPA-derived TF-α glycosylated peptide (SSTTGVAMH; also: 3 TF-α glycans, sites not given here, biotin-conjugated, site not given here)
presentation of peptide on DCs (percentage of positive cells) (DCs): strongest presentation on DCs

GPA26-43(1TFaa33): glycosylation variant of GPA26-43, biotin-conjugated peptide (NDTHKRDT(TF‑α)YAATPRAHEV; also: biotin-conjugated, site not given here)
presentation of peptide on DCs (percentage of positive cells) (DCs): presented at a similar percentage

GPA26-43(1TFaa37): glycosylation variant of GPA26-43, biotin-conjugated peptide (NDTHKRDTYAAT(TF‑α)PRAHEV; also: biotin-conjugated, site not given here)
presentation of peptide on DCs (percentage of positive cells) (DCs): less effectively presented than GPA26-43(1TFaa33) and GPA26-43, but more effectively than GPA26-43(2TF)

GPA26-43(2TF): biotin-conjugated GPA-derived TF-α glycosylated peptide (NDTHKRDTYAATPRAHEV; also: 2 TF-α glycans, sites not given here, biotin-conjugated, site not given here)
presentation of peptide on DCs (percentage of positive cells) (DCs): strongest presentation on DCs; also recorded: better presentation on DCs than GPA34-55(4TF); also recorded: found to be presented on DCs
activation of T cells on restimulation with peptide-loaded DCs (IFN-γ ELISPOT) (TFα-specific T cells [2]): stronger activation of T cells compared to DCs loaded with GPA34-55(4TF)

GPA26-43: the unglycosylated GPA26-43, biotin-conjugated peptide (NDTHKRDTYAATPRAHEV; also: biotin-conjugated, site not given here) [reference compound]
presentation of peptide on DCs (percentage of positive cells) (DCs): presented at a similar percentage

GPA48-63(1TF): biotin-conjugated GPA-derived TF-α glycosylated peptide (VRTVYPPEEETGERVQ; also: 1 TF-α glycan, site not given here, biotin-conjugated, site not given here)
presentation of peptide on DCs (percentage of positive cells) (DCs): strongest presentation on DCs

B1: asialoglycophorin A (protein)
chain: SSTTGVAMHTSTSSSVTKSYISSQTNDTHKRDTYAATPRAHEVSEISVRTVYPPEEETGERVQLAHHFSEPEITLIIFGVMAGVIGTILLISTGIRRLIKKSPSDVKPLPSPDTDVPLSSVEIENPETSDQ
notes: asialoglycophorin A (aGPA)
percentage of Nemod-TF1- and Nemod-TF2-positive cells (TFα presentation) on loaded DCs (dendritic cells [3]; CD80+CD209+, CD80+CD209− and CD80−CD209− DCs): increased percentage of Nemod-TF1- and Nemod-TF2-positive cells compared to GPA-loaded cells
TFα presentation on DCs when added just before staining (unspecific attachment) (dendritic cells [3]; added 10 min prior to analysis with Nemod-TF1, compared to loading times of 1 and 2 d, all three DC subpopulations): no presentation was found
activation of T cells on restimulation with loaded dendritic cells (IFN-γ ELISPOT) (TFα-specific T cells [4]): visible activation of T cells

B2: glycophorin A (protein)
chain: SSTTGVAMHTSTSSSVTKSYISSQTNDTHKRDTYAATPRAHEVSEISVRTVYPPEEETGERVQLAHHFSEPEITLIIFGVMAGVIGTILLISTGIRRLIKKSPSDVKPLPSPDTDVPLSSVEIENPETSDQ
notes: glycophorin A (GPA)
activation of T cells on restimulation with loaded dendritic cells (IFN-γ ELISPOT) (TFα-specific T cells [4]): almost no restimulation
